These are literature values, as cited in patent US20040254092A1 (priority 2003, published 2004).

Each structure is given as a SMILES string.

Series [1] has as its system Mycoplasma, Chlamydia, and other pathogens.
Series [2] concerns SA-H and human-wheel virus type 2.
Series [3] has as its system Type-B hepatitis surface antigen (HbsAg).
Series [4] deals with Poliomyelitis virus type I (PVI). The note with it: ozone density 0.13 mg/L, time 30 seconds.

As to `O=[O+][O-]` [Ozone, ozone], the Sterilizing efficiency is reported as 98% in the series on Coliphage ms2; 99.85% in series [1]; 99% in the series on Type-A flu virus; 100% in the series with HIV; 99.60% in series [2]; 99.99% in series [3]. Besides, the Sterilizing efficiency (in the series with Coronaviridae; in series [4]) was 100% in each case.
